Key:
[1] = Surface tension of water containing nonionic organic compound; assay type: physicochemical; settings: 0.001 g of compound in 100 g of water, 25° C.
Description: The lower limit of the surface tension is preferably 40 mN/m or more.

[2] = Solubility of nonionic organic compound in water; settings: for solubility in 100 g of water: in 100 g of water as measured at 25° C.; for Solubility of nonionic organic compound: saturated solubility in 100 g of water, 25° C.
Description: The solubility is expressed by a saturated solubility of the nonionic organic compound in 100 g of water. The stirring for the measurement was conducted within 1 h.

CC(C)CCCCCCCOCC(O)CO (centres unmarked) [PO-3, Isodecyl monoglyceryl ether]
Surface tension of water containing nonionic organic compound [1]: 57.8 mN/m | solubility in 100 g of water [2]: 0.05 g | Solubility of nonionic organic compound [2]: 0.05 g/100 g

CCCCCCCCCCC(O)CO (centres unmarked) [PO-1, 1,2-Dodecanediol]
Surface tension of water containing nonionic organic compound [1]: 47.1 mN/m | solubility in 100 g of water [2]: 0.001 g | Solubility of nonionic organic compound [2]: 0.001 g/100 g

CCCCC(CC)COCC(O)CO (centres unmarked) [2-ethylhexyl glyceryl ether]
Surface tension of water containing nonionic organic compound [1]: 62 mN/m | solubility in 100 g of water [2]: 0.15 g

CCCCCCCCC(O)CO (centres unmarked) [1,2-decanediol]
Surface tension of water containing nonionic organic compound [1]: 55 mN/m | solubility in 100 g of water [2]: 0.055 g

CCCCCCCCCCCC(=O)OCC(O)CO (centres unmarked) [PO-2, Dodecanoic acid monoglyceride]
Surface tension of water containing nonionic organic compound [1]: 65 mN/m | Surface tension of water containing nonionic organic compound ([1]; listed as lauric acid monoglyceride): 63 mN/m | solubility in 100 g of water [2]: 0.005 g | Solubility of nonionic organic compound [2]: 0.15 g/100 g

CCCCCCC(O)CO (centres unmarked) [1,2-octanediol]
Surface tension of water containing nonionic organic compound [1]: 65 mN/m | solubility in 100 g of water [2]: 0.20 g

CCCCCCCCCC(=O)OCC(O)CO (centres unmarked) [decanoic acid monoglyceride]
Surface tension of water containing nonionic organic compound [1]: 65 mN/m

Reference: US7749316B2, “Water-based inks for ink-jet printing” (Kao Corporation, priority 2006, dated 2010)
